From US4076703A, “Dipeptide derivatives and their production” (Shionogi & Co., Ltd., priority 1974, dated 1978)

Experiments:
DS male mice [1] = experiment: Taming activity (inhibition of electroshock-induced fighting); assay type: in vivo; settings: for Taming activity ED50: administered 60 minutes prior to experiment, inhibition of fighting responses, 5 pairs of mice; for times more potent than diazepam in the taming activity: relative to diazepam (Compound No. 5)
Description: (§1) This test was measured on DS male mice.
These pairs of mice were selected in the morning and used for drug test in the afternoon. The test compound was administered to both mice of the pairs 60 minutes prior to the experiment. Results were obtained as the mean percentage of inhibition of fighting responses in a group of 5 pairs and shown by ED50 [Tedeschi, et al.: J. Pharmacol Exp. Thev., 125, 28-34 (1959)].

DS male mice [2] = experiment: Anti-pentylenetetrazol activity; settings: for Anti-pentylenetetrazol activity, ED50: test compound given orally 60 minutes prior to 125 mg/kg s.c. pentylenetetrazol, complete protection against mortality, observed 2 hours; for times more potent than diazepam in the anti-pentylenetetrazol activity: relative to diazepam (Compound No. 5)
Description: This test was measured on a group of 10 DS male mice. […] In this test, the test compound was given orally 60 minutes prior to the administration of pentylenetetrazol. The observation was made for 2 hours after the administration of pentylenetetrazol. The criterion of anticonvulsant activity was determined as being complete protection against mortality. The convulsions were disregarded. Results were shown as ED50 [Goodman, et al.: J. Pharmacol., 108, 168 (1953)].

DS male mice [3] = experiment: Rotarod performance activity; assay type: in vivo; settings: mouse falling from rod (5 rotations per minute) within less than 2 minutes
Description: 3. Rotarod performance activity:
as §1
The mouse was put on a scraped rod of wood, 3 cm in diameter, turning at the rate of five rotations per minute. The mice that could remain on the rod for 3 or more minutes in successive trails were selected and placed in a group of 10 mice for each dose. If the mouse fell down from the rod within less than 2 minutes, the test compound was considered to be effective. Results were shown by ED50 [Dunham, et al.: J. Am. Pharm. Assoc., 46, 208 (1957)].

DS male mice [4] = settings: oral single dose, observed for 72 hours, Bliss method
Description: The test compound was orally administered to DS male mice in different single doses. For each dose, 10 mice were used, their weight ranging from 20 to 23 grams. […] The mortality was calculated by the Bliss method [Bliss: Ann.

[5] = relative to chlordiazepoxide (Compound No. 4)

Row | SMILES | times more potent than chlordiazepoxide in the taming activity (DS male mice [1]; [5]) [times] | times more potent than chlordiazepoxide in the anti-pentylenetetrazol activity (DS male mice [2]; [5]) [times] | Anti-pentylenetetrazol activity, ED50 (DS male mice [2]) [mg/kg] | Rotarod performance ED50 (DS male mice [3]) [mg/kg] | Taming activity ED50 (DS male mice [1]) [mg/kg] | times more potent than diazepam in the taming activity (DS male mice [1]) [times] | Acute toxicity LD50 (DS male mice [4]) [mg/kg] | times more potent than diazepam in the anti-pentylenetetrazol activity (DS male mice [2]) [times]
1 | CN(C(=O)CNC(=O)CN)c1ccc(Cl)cc1C(=O)c1ccccc1 [Compound No. 1, 2-benzoyl-4-chloro-N-methyl-N^α -glycyl-glycinanilide] | 2 to 3 | 2 to 3 | 1.0 | – | – | – | – | –
2 | CN1C(=O)CN=C(c2ccccc2)c2cc(Cl)ccc21 [Compound No. 5, Diazepam] | – | – | – | 9.03 | – | – | – | –
3 | CNC1=Nc2ccc(Cl)cc2C(c2ccccc2)=[N+]([O-])C1 [Compound No. 4, Chlordiazepoxide] | – | – | – | 50.0 | – | – | – | –
4 | CN(C(=O)CNC(=O)CN)c1ccc(Cl)cc1C(=O)c1ccccc1F.Cl [Compound No. 3, 2-o-fluorobenzoyl-4-chloro-N-methyl-N^α -glycyl-glycinanilide hydrochloride] | – | – | 0.33 | 17.0 | 1.6 | 2 to 4 | > 1000 | 2 to 4
5 | CN(C(=O)CNC(=O)CN)c1ccc(Cl)cc1C(=O)c1ccccc1Cl.O [Compound No. 2, 2-o-chlorobenzoyl-4-chloro-N-methyl-N^α -glycyl-glycinanilide hydrate] | – | – | 0.58 | – | 3.0 | 2 to 4 | – | 2 to 4
